# Sander's compilation of Henry's law constants (doi:10.1021/es00169a013)
# Experiment: Henry solubility constant Hcp at 298.15 K (mol/(m3 Pa))
# Details: reference: Dunnivant et al. (1988)
structure (smiles),measurement,value
"Clc1ccc(Cl)c(-c2cc(Cl)ccc2Cl)c1 [2,2',5,5'-tetrachlorobiphenyl]",Henry solubility constant Hcp,0.029
"Clc1ccc(-c2ccc(Cl)cc2)cc1 [4,4'-dichlorobiphenyl]",Henry solubility constant Hcp,0.05
"Clc1cccc(-c2cc(Cl)ccc2Cl)c1 [2,3',5-trichlorobiphenyl]",Henry solubility constant Hcp,0.03
"Clc1cc(Cl)c(-c2ccccc2)c(Cl)c1 [2,4,6-trichlorobiphenyl]",Henry solubility constant Hcp,0.015
"Clc1cccc(-c2cccc(Cl)c2)c1 [3,3'-dichlorobiphenyl]",Henry solubility constant Hcp,0.042
"Clc1ccc(Cl)c(-c2cc(Cl)c(Cl)cc2Cl)c1 [2,2',4,5,5'-pentachlorobiphenyl]",Henry solubility constant Hcp,0.039
"Clc1cccc(-c2cccc(Cl)c2Cl)c1Cl [2,2',3,3'-tetrachlorobiphenyl]",Henry solubility constant Hcp,0.049
"Clc1ccccc1-c1ccccc1Cl [2,2'-dichlorobiphenyl]",Henry solubility constant Hcp,0.029
"Clc1cc(Cl)c(-c2c(Cl)cc(Cl)cc2Cl)c(Cl)c1 [2,2',4,4',6,6'-hexachlorobiphenyl]",Henry solubility constant Hcp,0.013
"Clc1ccc(Cl)c(-c2ccccc2)c1 [2,5-dichlorobiphenyl]",Henry solubility constant Hcp,0.025
"Clc1cc(Cl)c(-c2cc(Cl)c(Cl)cc2Cl)cc1Cl [2,2',4,4',5,5'-hexachlorobiphenyl]",Henry solubility constant Hcp,0.075
"Clc1ccc(-c2ccccc2)cc1Cl [3,4-dichlorobiphenyl]",Henry solubility constant Hcp,0.048
"Clc1ccc(-c2ccc(Cl)c(Cl)c2)cc1Cl [3,3',4,4'-tetrachlorobiphenyl]",Henry solubility constant Hcp,0.1
"Clc1cccc(Cl)c1-c1c(Cl)cccc1Cl [2,2',6,6'-tetrachlorobiphenyl]",Henry solubility constant Hcp,0.018
